From ChEMBL document CHEMBL1156516, “Protein kinase C epsilon regulates gamma-aminobutyrate type A receptor sensitivity to ethanol and benzodiazepines through phosphorylation of gamma2 subunits” (J Biol Chem, 2007)
Positions count from the first letter of the chain named. Active and inactive are the calls of the source. The rule behind the calls is not given here.

Key:
[1] = tested on: HEK293; assay: Activity of human GABA alpha-1-beta-2-gamma-2S327 receptor in HEK293 cells expressing as-PKCepsilon cells assessed as induction of ethanol induced GABA current; assay type: cell-based
[2] = molecular target: Protein kinase C delta type (Homo sapiens, UniProt Q05655); assay: Inhibition of human PKCdelta
Protein kinase C delta type, sequence (Q05655 whole entry): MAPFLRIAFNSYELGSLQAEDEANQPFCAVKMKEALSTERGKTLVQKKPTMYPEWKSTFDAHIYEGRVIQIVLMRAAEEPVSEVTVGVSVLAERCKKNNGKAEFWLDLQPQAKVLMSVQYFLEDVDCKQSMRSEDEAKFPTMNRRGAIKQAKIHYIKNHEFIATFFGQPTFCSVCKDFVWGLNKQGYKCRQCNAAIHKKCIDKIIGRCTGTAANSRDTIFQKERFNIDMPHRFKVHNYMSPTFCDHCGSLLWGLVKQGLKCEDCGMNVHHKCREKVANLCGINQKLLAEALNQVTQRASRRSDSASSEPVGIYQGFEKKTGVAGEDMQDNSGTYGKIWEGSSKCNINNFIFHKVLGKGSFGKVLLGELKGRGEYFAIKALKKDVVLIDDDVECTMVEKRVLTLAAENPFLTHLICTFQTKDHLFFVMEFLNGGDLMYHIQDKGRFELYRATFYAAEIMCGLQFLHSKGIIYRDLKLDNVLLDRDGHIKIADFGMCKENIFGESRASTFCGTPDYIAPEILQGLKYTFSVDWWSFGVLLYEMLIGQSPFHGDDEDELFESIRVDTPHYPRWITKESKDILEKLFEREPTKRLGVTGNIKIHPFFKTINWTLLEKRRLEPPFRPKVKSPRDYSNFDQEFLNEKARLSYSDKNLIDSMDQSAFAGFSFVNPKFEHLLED

[3] = molecular target: Protein kinase C gamma type (Homo sapiens, UniProt P05129); assay: Inhibition of human PKCgamma
[4] = molecular target: T1, Protein kinase C epsilon type (Homo sapiens, UniProt Q02156); assay: Inhibition of human PKCepsilon
T1 sequence (Q02156 whole entry): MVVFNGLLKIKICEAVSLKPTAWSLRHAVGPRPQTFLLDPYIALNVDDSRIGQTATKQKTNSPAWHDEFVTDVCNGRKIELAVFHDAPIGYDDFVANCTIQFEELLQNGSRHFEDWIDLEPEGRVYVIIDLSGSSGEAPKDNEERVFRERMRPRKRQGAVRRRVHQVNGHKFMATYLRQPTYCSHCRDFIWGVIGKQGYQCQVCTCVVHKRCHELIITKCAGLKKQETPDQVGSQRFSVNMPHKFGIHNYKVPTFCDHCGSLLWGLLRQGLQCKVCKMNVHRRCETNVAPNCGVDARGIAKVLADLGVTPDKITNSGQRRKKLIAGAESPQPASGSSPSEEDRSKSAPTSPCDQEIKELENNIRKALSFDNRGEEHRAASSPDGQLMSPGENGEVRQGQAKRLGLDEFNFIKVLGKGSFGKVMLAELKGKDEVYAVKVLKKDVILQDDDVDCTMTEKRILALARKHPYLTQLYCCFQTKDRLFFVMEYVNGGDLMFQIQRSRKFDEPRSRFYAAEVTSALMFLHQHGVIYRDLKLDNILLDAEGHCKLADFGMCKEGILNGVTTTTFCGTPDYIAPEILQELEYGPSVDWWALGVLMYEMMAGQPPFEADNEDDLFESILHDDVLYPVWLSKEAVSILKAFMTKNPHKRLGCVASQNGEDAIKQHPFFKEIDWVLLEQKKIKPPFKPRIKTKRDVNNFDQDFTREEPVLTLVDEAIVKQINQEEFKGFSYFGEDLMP

[5] = molecular target: Protein kinase C epsilon type (Homo sapiens, UniProt Q02156, M486A); assay: (§1) Inhibition of human PKCepsilon type M486A mutant
Protein kinase C epsilon type (Homo sapiens, UniProt Q02156, M486A), sequence (Q02156 whole entry M486A): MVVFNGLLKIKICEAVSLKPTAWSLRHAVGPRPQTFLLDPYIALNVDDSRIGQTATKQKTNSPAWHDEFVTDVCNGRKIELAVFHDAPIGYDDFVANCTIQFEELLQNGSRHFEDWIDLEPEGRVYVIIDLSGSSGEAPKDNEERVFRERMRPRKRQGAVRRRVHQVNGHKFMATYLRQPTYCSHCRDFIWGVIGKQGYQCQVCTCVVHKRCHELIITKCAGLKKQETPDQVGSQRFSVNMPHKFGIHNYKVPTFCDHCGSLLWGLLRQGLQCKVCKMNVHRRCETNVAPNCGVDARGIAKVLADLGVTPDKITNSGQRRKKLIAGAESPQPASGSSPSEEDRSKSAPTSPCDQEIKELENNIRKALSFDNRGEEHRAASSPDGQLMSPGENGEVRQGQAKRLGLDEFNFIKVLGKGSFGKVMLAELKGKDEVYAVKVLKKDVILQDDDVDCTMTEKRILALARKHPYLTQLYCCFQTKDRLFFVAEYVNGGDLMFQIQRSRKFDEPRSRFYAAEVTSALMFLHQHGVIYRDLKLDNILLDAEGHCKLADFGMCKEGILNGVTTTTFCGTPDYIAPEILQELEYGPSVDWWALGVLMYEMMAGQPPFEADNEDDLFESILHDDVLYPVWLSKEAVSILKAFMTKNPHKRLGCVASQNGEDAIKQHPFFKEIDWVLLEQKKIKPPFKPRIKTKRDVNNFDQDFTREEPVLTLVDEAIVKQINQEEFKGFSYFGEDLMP

[6] = tested on: Mus musculus; assay: Induction of rotarod ataxia in PKCepsilon deficient mouse at 1 mg/kg; assay type: functional, organism-based; set-up: dose 1 mg/kg
[7] = tested on: T2, Protein kinase C epsilon type (Homo sapiens), Q02156 [M486A]; assay: as §1
T2 sequence (whole entry): T1 sequence (Q02156 whole entry) with M486A

[8] = molecular target: T3, GABA-A receptor; alpha-1/beta-2/gamma-2 (Homo sapiens) (UniProt P14867+P47870+P18507); settings: HEK293
[9] = tested on: HEK293; settings: Homo sapiens
[10] = tested on: HEK293; settings: Homo sapiens; remark: listed apart in the source
[11] = molecular target: T4, Gamma-aminobutyric acid receptor subunit alpha-1 (Homo sapiens) (UniProt P14867); settings: HEK293
T4 sequence (whole entry): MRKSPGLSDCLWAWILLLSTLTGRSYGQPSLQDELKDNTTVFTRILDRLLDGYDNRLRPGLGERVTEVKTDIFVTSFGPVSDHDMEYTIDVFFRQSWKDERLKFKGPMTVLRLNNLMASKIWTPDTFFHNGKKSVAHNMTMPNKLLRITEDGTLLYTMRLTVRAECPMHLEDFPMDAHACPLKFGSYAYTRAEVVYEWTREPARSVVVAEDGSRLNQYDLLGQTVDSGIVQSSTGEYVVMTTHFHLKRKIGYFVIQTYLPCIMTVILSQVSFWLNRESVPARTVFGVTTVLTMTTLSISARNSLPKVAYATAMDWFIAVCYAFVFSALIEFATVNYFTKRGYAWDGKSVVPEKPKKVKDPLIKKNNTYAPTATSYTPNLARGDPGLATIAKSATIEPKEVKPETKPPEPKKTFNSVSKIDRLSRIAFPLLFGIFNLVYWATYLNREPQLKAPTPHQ

[12] = molecular target: T3, GABA-A receptor; alpha-1/beta-2/gamma-2 (Homo sapiens); settings: HEK293; remark: listed apart in the source
[13] = tested on: HEK293; assay: Activity of human GABA alpha-1-beta-2-gamma-2L S327A mutant in HEK293 cells expressing as-PKCepsilon assessed as inhibition of ethanol induced GABA current at 30 uM; assay type: cell-based
[14] = species on record: Mus musculus; assay: Activity of human GABA alpha-1-beta-2-gamma-2S327 receptor in wild type mouse assessed as ethanol induced GABA current

CC(C)(C)n1nc(-c2cccc3ccccc23)c2c(N)ncnc21
Activity [1]: Active
IC50 [2]: > 100000 nM
IC50 [3]: > 100000 nM
IC50 [4]: > 100000 nM
IC50 [5]: 21 nM

Cc1ccc(-c2nc3ccc(C)cn3c2CC(=O)N(C)C)cc1
Activity [6]: Active
Activity [7]: Active

CN(C)CCCn1cc(C2=C(c3c[nH]c4ccccc34)C(=O)NC2=O)c2ccccc21 [GF-109203]
IC50 [2]: 32 nM
IC50 [3]: 30 nM
IC50 [4]: 6 nM
IC50 [5]: 12 nM

CN1C(=O)CN=C(c2ccccc2F)c2cc([N+](=O)[O-])ccc21
logEC50 [8]: 1.46
logEC50 [9]: 1.8
logEC50 [10]: 1.59
logEC50 [11]: 1.99
logEC50 [12]: 1.46

CN1CCc2cc3c(cc2[C@H]1[C@@H]1OC(=O)c2c1ccc1c2OCO1)OCO3
Activity [13]: Active

CN1C(=O)CN=C(c2ccccc2)c2cc(Cl)ccc21
Activity [14]: 75%
